Assay results reported in patent publication US6296785A, “Indeno-fused photochromic naphthopyrans” (PPG Industries Ohio, Inc., priority 2000, dated 2001).

What was measured:
Format in all cases: physicochemical
[1] = photochromic response of test squares on an optical bench (sensitivity, saturation optical density, bleach rate); conditions: for ΔOD @ Saturation (Band A) / ΔOD @ Saturation (Band B): UV exposure 15 minutes; for ΔOD @ Saturation (Band A) / Sensitivity ΔOD/MIN (Band A) / ΔOD @ Saturation (Band B) / Sensitivity ΔOD/MIN (Band B): 72° F. (22.2° C.), polymer test square; for Sensitivity ΔOD/MIN (Band A) / Sensitivity ΔOD/MIN (Band B): first five (5) seconds of UV exposure, expressed per minute; for Bleach Rate T 1/2: measured at band B, room temperature (72° F., 22.2° C.) after removal of activating light
Description: (§1) Testing was done with the photochromic compounds described in Examples 1 through 20 and Comparative Examples 1 through 3 in the following manner. A quantity of photochromic compound calculated to yield a 1.5×10^-3 molal solution was added to a flask containing 50 grams of a monomer blend of 4 parts ethoxylated bisphenol A dimethacrylate (BPA 2EO DMA), 1 part poly(ethylene glycol) 600 dimethacrylate, and 0.033 weight percent 2,2'-azobis(2-methyl propionitrile) (AIBN). The photochromic compound was dissolved into the monomer blend by stirring and gentle heating, if necessary. After a clear solution was obtained, it was poured into a flat sheet mold having the interior dimensions of 2.2 mm×6 inches (15.24 cm)×6 inches (15.24 cm). The mold was sealed and placed in a horizontal air flow, programmable oven programmed to increase the temperature from 40° C. to 95° C. over a 5 hour interval, hold the temperature at 95° C. for 3 hours, lower it to 60° C. over a 2 hour interval and then hold it at 60° C. for 16 hours. After the mold was opened, the polymer sheet was cut using a diamond blade saw into 2 inch (5.1 centimeters) test squares.
(§2) The photochromic test squares of Part A were tested for photochromic response rates on an optical bench. Prior to testing on the optical bench, the photochromic test squares were exposed to 365 nanometer ultraviolet light for about 15 minutes to activate the photochromic compounds and then placed into a 76° C. oven for about 15 minutes to bleach the photochromic compounds. The test squares were then cooled to room temperature, exposed to fluorescent room lighting for at least 2 hours and then kept covered for at least 2 hours prior to testing on an optical bench maintained at 72° F. (22.2° C.). The bench was fitted with a 250 watt Xenon arc lamp, a remote controlled shutter, a copper sulfate bath acting as a heat sink for the arc lamp, a Schott WG-320 nm cut-off filter which removes short wavelength radiation; neutral density filter(s) and a sample holder in which the square to be tested was inserted. The power output of the optical bench, i.e., the dosage of light that the sample lens would be exposed to, was calibrated with a photochromic test square used as a reference standard. […] The UV-A detector was placed into the sample holder and the light output was measured. Adjustments to the power output were made by increasing or decreasing the lamp wattage or by adding or removing neutral density filters in the light path.
A monitoring, collimated beam of light from a tungsten lamp was passed through the square at a small angle (approximately 30°) normal to the square. After passing through the square, the light from the tungsten lamp was directed to a detector through Spectral Energy Corp. GM-200 monochromator set at the previously determined visible lambda max of the photochromic compound being measured. The output signals from the detector were processed by a radiometer.
Change in optical density (ΔOD) was determined by inserting a test square in the bleached state into the sample holder, adjusting the transmittance scale to 100%, opening the shutter from the Xenon lamp to provide ultraviolet radiation to change the test square from the bleached state to an activated (i.e., darkened) state, measuring the transmittance in the activated state, and calculating the change in optical density according to the formula: ΔOD=log(100/% Ta), where % Ta is the percent transmittance in the activated state and the logarithm is to the base 10.
The ΔOD/Min, which represents the sensitivity of the photochromic compound's response to UV light, was measured over the first five (5) seconds of UV exposure, then expressed on a per minute basis. The saturation optical density (ΔOD@ Saturation) was taken under identical conditions as the ΔOD/Min, except UV exposure was continued for 15 minutes. […]

[2] = lambda max (Vis) of activated photochromic test squares in a Varian Cary 3 uv-visible spectrophotometer; conditions: activated form in test square
Description: as §1
The lambda max (Vis) is the wavelength in the visible spectrum at which the maximum absorption of the activated (colored) form of the photochromic compound in a test square occurs. The lambda max (Vis) wavelengths reported in Table 1 were determined by testing the photochromic test square polymerizates of Part A in a Varian Cary 3 uv-visible spectrophotometer. The bleach rate (T 1/2) is the time interval in seconds for the absorbance of the activated form of the photochromic compound in the test squares to read one half the highest absorbance at room temperature (72° F., 22.2° C.) after removal of the source of activating light.
For each lambda max visible, the corresponding optical density (Δ OD/Min and Δ OD at saturation) for the desired compounds of the Examples and Comparative Examples are tabulated in Table 1 for the two bands (A and B) of peak absorption for each compound. Table 1 also includes the bleach rate (T 1/2) for each of the compounds as measured at band B. The ratings of the Relative Δ OD at Saturation Test for the bands A and B of each of the Examples and Comparative Examples are calculated as follows: Δ OD at saturation (Band A)/Δ OD at saturation (Band B)×100.

[3] = Relative ΔOD at Saturation Test; conditions: ΔOD at saturation (Band A)/ΔOD at saturation (Band B)×100
Description: In accordance with the present invention, it has now been discovered that certain novel indeno[2,1-f]naphtho[1,2-b]pyrans having two absorption bands in the activated (colored) state, an acceptable fade rate, high activated intensity, a high coloration rate and a rating of 80 or higher in the Relative ΔOD at Saturation Test may be prepared. The Relative ΔOD at Saturation Test is described in Example 21. The ratings of the test are defined herein as the result obtained when the optical density of band "A" is divided by the optical density of band "B" and multiplied by 100. It is believed that compounds having a rating of 80 or higher are most valuable for formulating neutral grays, greens and browns for commercial photochromic ophthalmic eyeware.
as §1, §2
Change in optical density (ΔOD) was determined by inserting a test square in the bleached state into the sample holder, adjusting the transmittance scale to 100%, opening the shutter from the Xenon lamp to provide ultraviolet radiation to change the test square from the bleached state to an activated (i.e., darkened) state, measuring the transmittance in the activated state, and calculating the change in optical density according to the formula: ΔOD=log(100/% Ta), where % Ta is the percent transmittance in the activated state and the logarithm is to the base 10. […]

Row | SMILES | ΔOD @ Saturation (Band A) [1] | Sensitivity ΔOD/MIN (Band A) [1] | ΔOD @ Saturation (Band B) [1] | Sensitivity ΔOD/MIN (Band B) [1] | Bleach Rate T 1/2 [1] | λ MAX Vis (Band A) [2] | λ MAX Vis (Band B) [2] | Relative ΔOD at Saturation (rating) [3]
1 | COc1cc2c(cc1OC)C(C)(C)c1c3c(c4cc(OC)c(OC)cc4c1-2)OC(c1ccccc1)(c1ccc(N2CCOCC2)cc1)C=C3 (stereo not shown) [Example 2, 3-phenyl-3-(4-morpholinophenyl)-6,7,10,11-tetramethoxy-13,13-dimethyl-3H,13H-indeno[2,1-f]naphtho[1,2-b]pyran] | 1.10 | 0.32 ΔOD/MIN | 1.07 | 0.29 ΔOD/MIN | 14.2 min | 485 nm | 618 nm | 103
2 | COc1ccc(C2(c3ccc(OC)cc3)C=Cc3c4c(c5cc(OC)c(OC)cc5c3O2)-c2cc(OC)c(OC)cc2C4(C)C)cc1 [Example 1, 3,3-di(4-methoxyphenyl)-6,7,10,11-tetramethoxy-13,13-dimethyl-3H,13H-indeno[2,1-f]naphtho[1,2-b]pyran] | 0.99 | 0.33 ΔOD/MIN | 0.79 | 0.24 ΔOD/MIN | 8.77 min | 445 nm | 611 nm | 125
3 | COc1ccc(C2(c3ccc(OC)cc3)C=Cc3c4c(c5cc(OC)c(OC)cc5c3O2)-c2ccccc2C4(C)C)cc1 [Example 4, 3,3-di(4-methoxyphenyl)-6,7-dimethoxy-13,13-dimethyl-3H-13H-indeno[2,1-f]naphtho[1,2-b]pyran] | 1.11 | 0.39 ΔOD/MIN | 0.71 | 0.22 ΔOD/MIN | 4.45 min | 455 nm | 576 nm | 156
4 | CCC1(O)c2ccccc2-c2c1c1c(c3ccccc23)OC(c2ccc(OC)cc2)(c2ccc(OC)cc2)C=C1 (stereo not shown) [Comp. Ex. 1, 3,3-di(4-methoxyphenyl)-13-hydroxy-13-ethyl-3H-13H-indeno[2,1-f]naphtho[1,2-b]pyran, reference compound] | 0.16 | 0.21 ΔOD/MIN | 0.27 | 0.29 ΔOD/MIN | 0.783 min | 437 nm | 562 nm | 59
5 | CCC1(O)c2ccccc2-c2c1c1c(c3cc(OC)c(OC)cc23)OC(c2ccc(OC)cc2)(c2ccc(OC)cc2)C=C1 (stereo not shown) [Example 5, 3,3-di(4-methoxyphenyl)-6,7-dimethoxy-13-hydroxy-13-ethyl-3H-13H-indeno[2,1-f]naphtho[1,2-b]pyran] | 0.42 | 0.26 ΔOD/MIN | 0.27 | 0.19 ΔOD/MIN | 1.45 min | 458 nm | 584 nm | 155

Second part, the compound after the results:

Row | ΔOD @ Saturation (Band A) [1] | Sensitivity ΔOD/MIN (Band A) [1] | ΔOD @ Saturation (Band B) [1] | Sensitivity ΔOD/MIN (Band B) [1] | Bleach Rate T 1/2 [1] | λ MAX Vis (Band A) [2] | λ MAX Vis (Band B) [2] | Relative ΔOD at Saturation (rating) [3] | SMILES
6 | 0.34 | 0.16 ΔOD/MIN | 0.37 | 0.17 ΔOD/MIN | 1.75 min | 483 nm | 604 nm | 92 | COc1ccc(C2(c3ccc(N4CCOCC4)cc3)C=Cc3c4c(c5cc(OC)c(OC)cc5c3O2)-c2ccccc2C4(C)OC)cc1 (stereo not shown) [Example 20, 3-(4-methoxyphenyl)-3-(4-morpholinophenyl)-6,7-dimethoxy-13-methoxy-13-methyl-3H,13H-indeno[2,1-f]naphtho[1,2-b]pyran]
7 | 0.60 | 0.18 ΔOD/MIN | 0.59 | 0.23 ΔOD/MIN | 3.4 min | 477 nm | 597 nm | 102 | COc1ccc(C2(c3ccc(N4CCOCC4)cc3)C=Cc3c4c(c5cc(OC)c(OC)cc5c3O2)-c2ccccc2C4(C)C)cc1 (stereo not shown) [Example 9, 3-(4-methoxyphenyl)-3-(4-morpholinophenyl)-6,7-dimethoxy-13,13-dimethyl-3H,13H-indeno[2,1-f]naphtho[1,2-b]pyran]
8 | 0.37 | 0.29 ΔOD/MIN | 0.22 | 0.18 ΔOD/MIN | 1.27 min | 457 nm | 579 nm | 168 | CCCCC1(O)c2ccccc2-c2c1c1c(c3cc(OC)c(OC)cc23)OC(c2ccc(OC)cc2)(c2ccc(OC)cc2)C=C1 (stereo not shown) [Example 15, 3,3-di(4-methoxyphenyl)-6,7-dimethoxy-13-hydroxy-13-butyl-3H,13H-indeno[2,1,-f]naphtho[1,2-b]pyran]
